Measurements as given in patent US6562871B1, “Dry granulation of pharmaceutical formulation comprising mexiletine” (Boehringer Ingelheim Pharmaceuticals, Inc., priority 2000, dated 2003).
Like-named read-outs stand apart in the source and are kept apart here.

How the values were obtained:
Pour and tap density = assay type: physicochemical; details: average of two measurements
Method: Pour and tap density were tested using a Van Kel dual tapper and a 100 mL fluted graduate. The tare weight of the graduate was determined. It was then filled by pouring the powder into the graduate to approximately 70 mL. The net weight was next determined and a pour density calculated by dividing the net weight by the observed volume. Tap density was determined by allowing the graduate to tap 1000 times and reading the new volume. Tap density was calculated by dividing the net weight by the new “tap” volume. Both measurements were expressed in grams/mL. Results were reported as the average of two measurements.

[1] = Flow studies (funnel flow rate, angle of repose); assay type: physicochemical
Method: The flow studies were performed using a ring stand and funnel set-up, such that the funnel was perpendicular to the table flat surface and the tip of the funnel was 6 inches from the table flat surface. The funnel was plastic with the following dimensions: upper diameter, 150 mm, lower diameter 24 mm, and overall length 135 mm. To the upper, wider diameter of the funnel a vibrator was placed touching the outer perimeter. The vibrator was set on its dial such that the indicator was in the 3 o'clock position. Fifty grams of material was placed into the funnel while holding a piece of cardboard under it. The vibrator was started, and the cardboard was removed while simultaneously starting a timer. The time for the fifty grams to pass through a funnel was recorded. The angle of repose, the maximum angle that can be obtained between the free standing surface of a powder heap and the horizontal plane, was calculated according to: […]
Where h is the height of the powder heap and D is the diameter of the base of the powder heap. Tests were performed in duplicate.

[2] = Method: Particle size and distribution was determined by suspending a sample of powder in mineral oil on a hemacytometer and counting particles in the size ranges: 1-5, 5-10, 10-25, 25-50, 50-100, 100-200, >200 μm using a polarizing light microscope. At least 200 particles were counted.
Maximum and minimum particle sizes were determined with a large sampling using a low power, stereo microscope. The sample was suspended in a well slide filled with mineral oil. Measurements of the largest and smallest particles were made with a calibrated reticule.

[3] = Compressional force profiles; assay type: physicochemical; details: slugs on hydraulic press, FIG. 1 and FIG. 2
Excerpt: Compressional force profiles were generated on a calibrated Carver press using 12 mm standard cup punches and matching die. The punches and die were dusted with magnesium stearate to facilitate the release of the slug from the die. Five hundred milligram aliquots of drug substance were weighed and individually loaded into the die for compression. Slugs were compressed at 1000, 2000, 3000, 4000, 5000, 6000, 7000 and 8000 pounds gauge force (unless otherwise noted). Gauge force readings were corrected based on the calibration for that gauge and press. The compressed slugs for each representative force were weighed on a four place balance and measured for thickness. Pressure, volume and density were calculated using slug (tablet) geometry and area.

In the case of `Cc1cccc(C)c1OCC(C)N` (centres unmarked) [Mexiletine Drug Substance, 1-(2,6-dimethyl-phenoxy)-2-propanamine], the “Tap Density” value (Pour and tap density; 1000 taps) was 0.35 g/mL, the “Bulk Density” value (Pour and tap density; pour density) was 0.22 g/mL and the “Angle of Repose” value [1] was 62 °. For the same molecule, the “Flow Rate” value ([1]; 50 g through funnel, vibrator assisted) was 2.1 g/s, the “Particle Size Distribution, % by number” value ([2]; size range 1-5 μm) was 32.0% and the “Particle Size Distribution, % by number” value ([2]; size range 5-10 μm) was 23.3%. The “Particle Size Distribution, % by number” value ([2]; size range 10-25 μm) was 37.9%, the “Particle Size Distribution, % by number” value ([2]; size range 25-50 μm) was 6.6% and the “Particle Size Distribution, % by number” value ([2]; size range 50-100 μm) was 0.2%. For the same molecule, the “Particle Size Distribution, % by number” value ([2]; size range 100-200 μm) was 0.0%, the “Particle Size Distribution, % by number” value ([2]; size range >200 μm) was 0.0% and the “Size of larger particles” value ([2]; well slide technique, larger sample sizes, very few) was 150 μm. For the same molecule, the “Compressibility (density vs pressure)” value ([3]; listed as drug substance) was “very compressible” and the “Compressibility (density vs pressure)” value ([3]; listed as mexiletine drug substance) was “very good compressional characteristics”.
